Source: ChEMBL document CHEMBL4673259, “Discovery of isoquinolinone and naphthyridinone-based inhibitors of poly(ADP-ribose) polymerase-1 (PARP1) as anticancer agents: Structure activity relationship and preclinical characterization” (Bioorg Med Chem, 2020)

Key:
[1] = target: T1, Poly [ADP-ribose] polymerase 1 (Homo sapiens, UniProt P09874); experiment: Inhibition of N-terminal GST-tagged human full length PARP1 (2 to 1041 residues) expressed in baculovirus infected Sf9 cells using histone mixture (H2A and H2B) and biotinylated NAD+ as substrate in presence of activated DNA incubated for 60 mins by chemiluminescence assay
CYP2C9 = CYP2C9 (Homo sapiens, UniProt P11712); experiment: Inhibition of CYP2C9 (unknown origin) at 10 uM relative to control; assay type: ADME
[2] = Metabolic stability of the compound in dog plasma measured up to 4 hrs; assay type: ADME, cell-free, Canis lupus familiaris; details: read-out: Stabilty
[3] = Metabolic stability of the compound in human plasma measured up to 4 hrs; assay type: ADME, cell-free; details: read-out: Stabilty
CYP3A4 = CYP3A4 (Homo sapiens, UniProt P08684); experiment: Inhibition of CYP3A4 (unknown origin) at 10 uM relative to control; assay type: ADME
MDA-MB-436 [4] = experiment: Anticancer activity against human MDA-MB-436 cells harboring BRCA mutant xenografted in SCID/nude mouse assessed as tumor growth regression at 0.015 mg/kg, po bid and measured up to 5 weeks post-drug administration; assay type: functional; details: MDA-MB-436, po, 840 h, time weeks <=5
[5] = Metabolic stability of the compound in rat plasma measured up to 4 hrs; assay type: ADME, cell-free; details: read-out: Stabilty
[6] = Protein binding in mouse plasma; assay type: ADME, cell-free; details: read-out: PPB (converted)
CYP2D6 = CYP2D6 (Homo sapiens, UniProt P10635); experiment: Inhibition of CYP2D6 (unknown origin) at 10 uM relative to control; assay type: ADME
MDA-MB-436 [7] = experiment: Anticancer activity against human MDA-MB-436 cells harboring BRCA mutant xenografted in SCID/nude mouse assessed as tumor growth regression at 0.05 mg/kg, po bid and measured up to 5 weeks post-drug administration; assay type: functional; details: MDA-MB-436, po, 840 h, time weeks <=5
MDA-MB-436 [8] = experiment: Potentiation of anticancer activity against human MDA-MB-436 cells harboring BRCA mutant xenografted in SCID/nude mouse assessed as tumor growth inhibition at 0.15 mg/kg, po bid for 12 days co-administered with […] measured up to 9 weeks post drug administration; assay type: functional; details: MDA-MB-436, po, time weeks <=9
[9] = Protein binding in rat plasma; assay type: ADME, cell-free; details: read-out: PPB (converted)
MDA-MB-436 [10] = experiment: Cytotoxicity against human MDA-MB-436 cells assessed as inhibition of cell viability incubated for 4 days by CellTiterGlo luminescence assay; details: MDA-MB-436, 96 h
[11] = Volume of distribution at steady state in BALB/c mouse at 1 mg/kg, iv measured up to 24 hrs by LC-MS/MS analysis; assay type: ADME, organism-based; details: in vivo, read-out: Vdss
[12] = Cmax in BALB/c mouse at 10 mg/kg, po measured up to 24 hrs by LC-MS/MS analysis; assay type: ADME, organism-based; parameters: route oral, dose 10 mg/kg, time <=24; details: in vivo
[13] = Clearance in BALB/c mouse at 1 mg/kg, iv measured up to 24 hrs by LC-MS/MS analysis; assay type: ADME, organism-based; details: in vivo
[14] = target: T1, Poly [ADP-ribose] polymerase 1; experiment: Inhibition of PARP1 in human MDA-MB-436 cells assessed as inhibition of PARylation at 10 nM incubated for 1 hr by chemiluminescence assay; assay type: cell-based
MDA-MB-436 [15] = experiment: Potentiation of anticancer activity against human MDA-MB-436 cells harboring BRCA mutant xenografted in SCID/nude mouse assessed as tumor growth inhibition at 0.15 mg/kg, po bid for 12 days co-administered with TMZ measured up to 9 weeks post drug administration; assay type: functional; details: MDA-MB-436, po, 288 h, time 12 day

T1 sequence (P09874 whole entry, the tested form may be a part): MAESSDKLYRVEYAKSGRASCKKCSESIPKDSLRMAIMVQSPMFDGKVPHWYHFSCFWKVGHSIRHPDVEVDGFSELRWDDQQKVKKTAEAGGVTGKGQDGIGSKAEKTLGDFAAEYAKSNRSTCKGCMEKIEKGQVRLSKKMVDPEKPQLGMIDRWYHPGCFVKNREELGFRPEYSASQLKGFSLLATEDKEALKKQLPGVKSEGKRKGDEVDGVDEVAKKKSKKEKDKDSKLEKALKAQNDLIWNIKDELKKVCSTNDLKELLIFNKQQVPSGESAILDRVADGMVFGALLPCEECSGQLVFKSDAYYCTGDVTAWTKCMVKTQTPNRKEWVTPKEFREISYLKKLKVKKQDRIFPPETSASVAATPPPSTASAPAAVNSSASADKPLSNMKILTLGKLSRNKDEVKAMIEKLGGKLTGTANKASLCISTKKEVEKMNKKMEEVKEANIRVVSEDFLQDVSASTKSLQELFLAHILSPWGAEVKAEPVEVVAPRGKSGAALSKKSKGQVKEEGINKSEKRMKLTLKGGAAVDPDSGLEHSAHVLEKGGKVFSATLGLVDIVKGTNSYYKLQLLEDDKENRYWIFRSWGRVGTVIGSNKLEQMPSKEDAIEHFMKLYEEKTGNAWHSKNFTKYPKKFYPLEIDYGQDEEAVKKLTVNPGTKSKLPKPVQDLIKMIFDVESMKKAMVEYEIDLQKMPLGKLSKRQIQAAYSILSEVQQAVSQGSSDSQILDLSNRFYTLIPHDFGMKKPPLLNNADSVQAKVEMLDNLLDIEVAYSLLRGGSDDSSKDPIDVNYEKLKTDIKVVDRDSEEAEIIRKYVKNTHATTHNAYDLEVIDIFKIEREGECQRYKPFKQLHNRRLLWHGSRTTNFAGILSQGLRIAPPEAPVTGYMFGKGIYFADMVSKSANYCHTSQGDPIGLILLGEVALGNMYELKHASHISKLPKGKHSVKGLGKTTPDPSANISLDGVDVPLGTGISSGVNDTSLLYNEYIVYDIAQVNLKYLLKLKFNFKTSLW
Sequence of CYP3A4 (P08684 whole entry): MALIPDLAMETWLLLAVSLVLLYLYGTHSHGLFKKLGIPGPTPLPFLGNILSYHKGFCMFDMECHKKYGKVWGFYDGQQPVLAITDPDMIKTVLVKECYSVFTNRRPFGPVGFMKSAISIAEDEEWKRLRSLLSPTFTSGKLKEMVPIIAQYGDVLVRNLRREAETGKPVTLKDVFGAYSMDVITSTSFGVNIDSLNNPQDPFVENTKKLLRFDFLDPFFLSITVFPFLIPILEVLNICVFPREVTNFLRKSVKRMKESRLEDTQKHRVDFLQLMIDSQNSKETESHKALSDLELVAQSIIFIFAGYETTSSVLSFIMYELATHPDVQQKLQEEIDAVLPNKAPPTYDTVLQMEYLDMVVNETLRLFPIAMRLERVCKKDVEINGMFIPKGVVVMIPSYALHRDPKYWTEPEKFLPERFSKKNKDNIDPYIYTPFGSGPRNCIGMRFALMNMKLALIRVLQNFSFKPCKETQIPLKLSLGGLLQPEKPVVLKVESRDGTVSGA
Sequence of CYP2C9 (P11712 whole entry): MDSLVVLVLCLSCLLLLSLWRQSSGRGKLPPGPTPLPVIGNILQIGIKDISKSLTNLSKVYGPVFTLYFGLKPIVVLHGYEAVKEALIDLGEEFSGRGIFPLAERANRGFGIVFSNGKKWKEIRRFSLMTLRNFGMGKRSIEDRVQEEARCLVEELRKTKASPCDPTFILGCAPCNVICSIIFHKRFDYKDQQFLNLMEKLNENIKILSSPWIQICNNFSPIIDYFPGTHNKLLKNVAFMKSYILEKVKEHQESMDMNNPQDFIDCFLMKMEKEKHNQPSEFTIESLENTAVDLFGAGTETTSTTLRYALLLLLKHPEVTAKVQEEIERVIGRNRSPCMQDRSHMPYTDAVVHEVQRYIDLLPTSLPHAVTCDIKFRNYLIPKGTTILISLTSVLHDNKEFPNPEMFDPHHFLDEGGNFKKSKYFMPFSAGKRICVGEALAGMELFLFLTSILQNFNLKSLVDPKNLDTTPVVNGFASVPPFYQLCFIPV
Sequence of CYP2D6 (P10635 whole entry): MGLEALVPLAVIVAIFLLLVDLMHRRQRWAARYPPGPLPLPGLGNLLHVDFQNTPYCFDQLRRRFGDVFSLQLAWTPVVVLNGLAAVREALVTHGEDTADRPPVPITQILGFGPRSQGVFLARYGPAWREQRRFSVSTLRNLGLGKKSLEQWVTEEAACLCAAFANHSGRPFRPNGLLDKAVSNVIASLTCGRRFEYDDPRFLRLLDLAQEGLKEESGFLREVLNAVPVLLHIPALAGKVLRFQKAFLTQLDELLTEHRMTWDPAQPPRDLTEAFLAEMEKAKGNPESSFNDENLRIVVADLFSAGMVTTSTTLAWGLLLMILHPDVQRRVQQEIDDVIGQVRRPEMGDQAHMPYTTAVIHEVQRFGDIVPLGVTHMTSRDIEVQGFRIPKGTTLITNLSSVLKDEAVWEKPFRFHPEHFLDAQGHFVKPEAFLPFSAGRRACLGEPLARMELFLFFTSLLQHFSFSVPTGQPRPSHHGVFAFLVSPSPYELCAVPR

N#Cc1ccc(N2CCN([C@H]3C=C(c4cc5ncccc5c(=O)[nH]4)CC3)CC2)cc1
IC50 [1]: 1.1 nM | inhibition at 10 µM (CYP2C9): ≤ 23% | remaining at 4 h [2]: 80% | remaining at 4 h [3]: 80% | inhibition at 10 µM (CYP3A4): ≤ 23% | inhibition in vivo at 0.015 mg/kg (MDA-MB-436 [4]): 50% | remaining at 4 h [5]: 80% | fraction unbound [6]: 0.074 | inhibition at 10 µM (CYP2D6): ≤ 23% | inhibition in vivo at 0.05 mg/kg (MDA-MB-436 [7]): 83% | inhibition in vivo at 0.15 mg/kg (MDA-MB-436 [8]): > 90% | fraction unbound [9]: 0.056 | IC50 (MDA-MB-436 [10]): 0.035 nM | Vd [11]: 0.2 L/kg | Cmax [12]: 31 µM | clearance [13]: 0.4 mL/min/kg | inhibition [14]: 82% | inhibition in vivo at 0.15 mg/kg (MDA-MB-436 [15]): > 90%
